# Measured values taken from patent US20240083857A1, “2-Methyl-Quinazolines” (Bayer Pharma Aktiengesellschaft, priority 2017, published 2024).
# Like-named read-outs stand apart in the source and are kept apart here.
# Experiments:
# [1] = molecular target: Epidermal Growth Factor Receptor (EGFR) (Homo sapiens (Human), UniProt P00533); assay: EGFR kinase assay (TR-FRET); format: biochemical
# Excerpt: EGFR inhibitory activity of compounds of the present invention was quantified employing the TR-FRET based EGFR assay as described in the following paragraphs.
# Epidermal Growth Factor Receptor (EGFR) affinity purified from human carcinoma A431 cells (Sigma-Aldrich, #E3641) was used as kinase. As substrate for the kinase reaction the biotinylated peptide biotin-Ahx-[…] (SEQ ID NO 5) (C-terminus in amid form) was used which can be purchased e.g. form the company Biosyntan GmbH (Berlin-Buch, Germany).
# For the assay 50 nL of a 100 fold concentrated solution of the test compound in DMSO was pipetted into a black low volume 384 well microtiter plate (Greiner Bio-One, Frickenhausen, Germany), 2 μL of a solution of EGFR in aqueous assay buffer [50 mM Hepes/HCl pH 7.0, 1 mM MgCl2, 5 mM MnCl2, 0.5 mM activated sodium ortho-vanadate, 0.005% (v/v) Tween-20]were added and the mixture was incubated for 15 min at 22° C. to allow pre-binding of the test compounds to the enzyme before the start of the kinase reaction. […] The concentration of EGFR was adjusted depending of the activity of the enzyme lot and was chosen appropriate to have the assay in the linear range, typical concentration were about 3 U/ml. The reaction was stopped by the addition of 5 μl of a solution of HTRF detection reagents (0.1 μM streptavidine-XL665 [Cis Biointernational] and 1 nM PT66-Tb-Cryptate, an terbium-cryptate labelled anti-phospho-tyrosine antibody from Cis Biointernational [instead of the PT66-Tb-cryptate PT66-Eu-Chelate from Perkin Elmer can also be used]) in an aqueous EDTA-solution (80 mM EDTA, 0.2% (w/v) bovine serum albumin in 50 mM HEPES pH 7.5).
# The resulting mixture was incubated 1 h at 22° C. to allow the binding of the biotinylated phosphorylated peptide to the streptavidine-XL665 and the PT66-Eu-Chelate. Subsequently the amount of phosphorylated substrate was evaluated by measurement of the resonance energy transfer from the PT66-Tb-Cryptate to the streptavidine-XL665. Therefore, the fluorescence emissions at 620 nm and 665 nm after excitation at 337 nm were measured in a HTRF reader, e.g. a Pherastar (BMG Labtechnologies, Offenburg, Germany) or a Viewlux (Perkin-Elmer). The ratio of the emissions at 665 nm and at […] was taken as the measure for the amount of phosphorylated substrate.
# [2] = molecular target: human SOS1 (loading of human K-Ras^G12C-GDP with fluorescent GTP-analog) (Homo sapiens, UniProt Q07889); assay: Biochemical assay 3: K-Ras^G12C activation assay by hSOS1 (HTRF)
# [3] = molecular target: human SOS1 (nucleotide exchange of K-Ras^G12C) (Homo sapiens, UniProt Q07889); assay: Biochemical assay 2: K-Ras^G12C activation assay by hSOS1 at high GTP concentration (HTRF)
# [4] = molecular target: K-Ras^G12C : hSOS1 interaction (Homo sapiens, UniProt Q07889); assay: Biochemical assay 1: K-Ras^G12C interaction assay with hSOS1 (HTRF); format: binding
# [5] = values given in μM, read-out: EGFR kinase inhibition IC50
# [6] = no GTP, read-out: Assay 3 (KRAS-Activation by SOS no GTP) activity expressed as IC50
# [7] = high GTP, read-out: Assay 2 (KRAS-Activation by SOS high GTP) activity expressed as IC50
# [8] = read-out: Assay 1 (KRAS-SOS Interaction) activity expressed as IC50
# [9] = in μM, read-out: EGFR-assay IC50
# [10] = E-notation values, unit inferred, read-out: Assay 3 (KRAS-Activation) IC50
# [11] = E-notation values, unit inferred, 50 μM GTP, read-out: Assay 2 (KRAS-Activation, high GTP) IC50
# [12] = E-notation values, unit inferred, read-out: Assay 1 (KRAS-SOS interaction) IC50
# [13] = E-notation values, unit inferred, read-out: EGFR-assay IC50
# Chain of Epidermal Growth Factor Receptor (EGFR) (P00533 25-1210): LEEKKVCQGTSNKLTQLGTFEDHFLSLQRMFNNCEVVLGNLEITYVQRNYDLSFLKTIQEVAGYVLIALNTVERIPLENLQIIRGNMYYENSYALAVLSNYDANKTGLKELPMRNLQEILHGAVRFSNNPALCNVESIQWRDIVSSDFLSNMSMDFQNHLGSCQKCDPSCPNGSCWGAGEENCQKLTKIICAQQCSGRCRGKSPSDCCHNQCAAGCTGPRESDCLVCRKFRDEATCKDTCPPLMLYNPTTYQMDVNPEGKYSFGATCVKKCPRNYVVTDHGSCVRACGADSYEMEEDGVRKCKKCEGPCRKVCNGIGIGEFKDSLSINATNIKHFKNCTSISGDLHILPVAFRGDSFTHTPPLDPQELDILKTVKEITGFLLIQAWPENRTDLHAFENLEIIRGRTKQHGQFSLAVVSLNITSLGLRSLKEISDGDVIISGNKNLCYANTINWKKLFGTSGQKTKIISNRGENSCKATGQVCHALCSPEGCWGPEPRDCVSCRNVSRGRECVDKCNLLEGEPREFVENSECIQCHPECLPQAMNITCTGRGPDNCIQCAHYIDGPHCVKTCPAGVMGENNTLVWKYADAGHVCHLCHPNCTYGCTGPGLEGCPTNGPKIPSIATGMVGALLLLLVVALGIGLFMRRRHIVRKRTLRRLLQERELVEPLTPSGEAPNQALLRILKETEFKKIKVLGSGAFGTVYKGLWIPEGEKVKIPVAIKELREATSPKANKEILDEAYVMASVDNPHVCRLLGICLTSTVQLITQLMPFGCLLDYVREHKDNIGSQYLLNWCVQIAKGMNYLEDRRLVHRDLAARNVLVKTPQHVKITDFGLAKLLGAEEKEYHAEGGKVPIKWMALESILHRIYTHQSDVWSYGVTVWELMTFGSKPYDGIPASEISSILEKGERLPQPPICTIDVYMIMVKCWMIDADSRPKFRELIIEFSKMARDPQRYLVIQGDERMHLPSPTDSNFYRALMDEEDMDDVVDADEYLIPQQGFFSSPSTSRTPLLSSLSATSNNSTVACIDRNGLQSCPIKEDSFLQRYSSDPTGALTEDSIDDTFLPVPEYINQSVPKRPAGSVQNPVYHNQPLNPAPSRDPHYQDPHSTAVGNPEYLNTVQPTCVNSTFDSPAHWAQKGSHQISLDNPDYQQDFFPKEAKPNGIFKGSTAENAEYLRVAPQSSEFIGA
SMILES,"IC50 [2, 10]","IC50 [3, 11]","IC50 [1, 13]",also measured
"CNCc1ccccc1-c1csc(C(C)Nc2nc(C)nc3cc(OC)c(OC)cc23)c1 (single isomer, unassigned; enantiomer 1) [Example 326, 6,7-dimethoxy-2-methyl-N-[1-(4-{2-[(methylamino)methyl]phenyl}thiophen-2-yl)ethyl]quinazolin-4-amine, Enantiomer 1]",,,,"IC50 [1, 5]: > 20 µM"
"CNCc1ccccc1-c1csc(C(C)Nc2nc(C)nc3cc(OC)c(OC)cc23)c1 (single isomer, unassigned; enantiomer 2) [Example 327, 6,7-dimethoxy-2-methyl-N-[1-(4-{2-[(methylamino)methyl]phenyl}thiophen-2-yl)ethyl]quinazolin-4-amine, Enantiomer 2]",,,,"IC50 [1, 5]: > 20 µM"
"COc1cc2nc(C)nc(N[C@H](C)c3cccc4ccccc34)c2cc1OC [Example 1, 6,7-dimethoxy-2-methyl-N-[(1R)-1-(naphthalen-1-yl)ethyl]quinazolin-4-amine]",,,,"IC50 [1, 5]: > 20 µM"
"CNCc1ccccc1-c1csc(C(C)Nc2nc(C)nc3cc(OC)c(OC)cc23)c1 (centres unmarked) [Example 271, 6,7-dimethoxy-2-methyl-N-[1-(4-{2-[(methylamino)methyl]phenyl}thiophen-2-yl)ethyl]quinazolin-4-amine]",,,,"IC50 [1, 5]: > 20 µM"
"COc1cc2nc(C)nc(NC(C)c3ccc(-c4ccccc4CNCC(=O)Nc4ccccc4)s3)c2cc1OC (centres unmarked) [Example 289, 2-[2-(5-{1-[(6,7-dimethoxy-2-methylquinazolin-4-yl)amino]ethyl}thiophen-2-yl)benzyl]-N-phenylglycinamide]",,,,"IC50 [2, 6]: 2.73 µM; IC50 [3, 7]: 1.18 µM; IC50 [4, 8]: 2.11 µM"
"COc1cc2nc(C)nc(N[C@H](C)c3cccc(-c4c[nH]cn4)c3)c2cc1OC [Example 342, N-{(1R)-1-[3-(1H-imidazol-4-yl)phenyl]ethyl}-6,7-dimethoxy-2-methylquinazolin-4-amine]",,,,"IC50 [2, 6]: 1.13 µM; IC50 [3, 7]: 0.993 µM; IC50 [1, 5]: > 20 µM"
"COc1cc2nc(C)nc(NC(C)c3cccs3)c2cc1OC (centres unmarked) [Example 347, 6,7-dimethoxy-2-methyl-N-[1-(thiophen-2-yl)ethyl]quinazolin-4-amine]",,,,"inhibition at 20 µM ([2]; read-out: Assay 3 (KRAS-Activation by SOS no GTP) activity expressed as % inhibition at 20 μM, no GTP, at 20 μM): 48%; IC50 [3, 7]: 9.05 µM; IC50 [4, 8]: 15.6 µM"
"COc1cc2nc(C)nc(NC(C)c3ccc(-c4ccccc4-c4nnn[nH]4)s3)c2cc1OC (centres unmarked) [Example 368, 6,7-dimethoxy-2-methyl-N-[1-{5-[2-(1H-tetrazol-5-yl)phenyl]thiophen-2-yl}ethyl]-quinazolin-4-amine]",,,,"IC50 [1, 9]: > 20 µM"
"Cc1nc(N[C@H](C)c2cccc(Cl)c2)c2cc(C(=O)O)ccc2n1 [Example 372, 4-{[(1R)-1-(3-chlorophenyl)ethyl]amino}-2-methylquinazoline-6-carboxylic acid]",,,,"IC50 [1, 9]: > 20 µM"
"COc1cc2nc(C)nc(NC(C)c3ccc(-c4ccccc4C(O)CCc4ccccc4)s3)c2cc1OC (centres unmarked) [Example 375, 1-[2-(5-{1-[(6,7-dimethoxy-2-methylquinazolin-4-yl)amino]ethyl}thiophen-2-yl)phenyl]-3-phenylpropan-1-ol]",,,,"IC50 [1, 9]: > 20 µM"
"COc1cc2nc(C)nc(NC(C)c3ccc(-c4ccc(Br)cc4CN(C)C)s3)c2cc1OC (centres unmarked) [Example 384, N-(1-(5-(4-bromo-2-((dimethylamino)methyl)phenyl)thiophen-2-yl)ethyl)-6,7-dimethoxy-2-methylquinazolin-4-amine]",0.0846 µM,0.0665 µM,,"IC50 [4, 12]: 0.123 µM"
"COc1cc2nc(C)nc(NC(C)c3ccc(-c4ccc(C(F)(F)F)cc4CN(C)C)s3)c2cc1OC (centres unmarked) [Example 385, N-(1-(5-(2-((dimethylamino)methyl)-4-(trifluoromethyl)phenyl)thiophen-2-yl)ethyl)-6,7-dimethoxy-2-methylquinazolin-4-amine]",0.388 µM,0.329 µM,,"IC50 [4, 12]: 0.732 µM"
"COc1cc2nc(C)nc(NC(C)c3ccc(-c4ccc(C(F)(F)F)cc4C)s3)c2cc1OC (centres unmarked) [Example 386, 6,7-di methoxy-2-methyl-N-(1-{5-[2-methyl-4-(trifluoromethyl)phenyl]-2-thienyl}ethyl)quinazolin-4-amine]",10.1 µM,3.66 µM,,"IC50 [4, 12]: 8.77 µM"
"Cc1nc(NC(C)c2ccc(-c3ccccc3CN(C)C)s2)c2cc(N3CCCC3)ccc2n1 (centres unmarked) [Example 415, N-[1-(5-{2-[(dimethylamino)methyl]phenyl}thiophen-2-yl)ethyl]-2-methyl-6-(pyrrolidin-1-yl)quinazolin-4-amine]",0.0942 µM,0.0885 µM,,"IC50 [4, 12]: 0.115 µM"
COc1cc2nc(C)nc(NC(C)c3csc(C)n3)c2cc1OC (centres unmarked) [Example 444],> 20 µM,> 20 µM,> 20 µM,
"COc1cc2nc(C)nc(NC(C)c3nc(C)cs3)c2cc1OC (centres unmarked) [Example 445, 6,7-dimethoxy-2-methyl-N-[1-(4-methyl-1,3-thiazol-2-yl)ethyl]quinazolin-4-amine]",> 20 µM,> 20 µM,> 20 µM,
"COc1cc2nc(C)nc(NC(C)c3ccc(-c4cc(C(=O)O)n(C)n4)s3)c2cc1OC (centres unmarked) [Example 446, 3-(5-{1-[(6,7-dimethoxy-2-methylquinazolin-4-yl)amino]ethyl}thiophen-2-yl)-1-methyl-1H-pyrazole-5-carboxylic acid]",> 20 µM,> 20 µM,> 20 µM,
"COc1cc2nc(C)nc(NC(C)c3ccc(-c4ccc(CNC(=O)OC(C)(C)C)s4)s3)c2cc1OC (centres unmarked) [Example 447, tert-butyl [(5′-{1-[(6,7-dimethoxy-2-methylquinazolin-4-yl)amino]ethyl}-2,2′-bithiophen-5-yl)methyl]carbamate]",> 20 µM,> 20 µM,> 20 µM,
"COc1cc2nc(C)nc(N[C@H](C)c3cccc(-c4cn[nH]c4)c3)c2cc1OCCS(C)(=O)=O [Example 448, 7-methoxy-2-methyl-6-[2-(methylsulfonyl)ethoxy]-N-{(1R)-1-[3-(1H-pyrazol-4-yl)phenyl]ethyl}quinazolin-4-amine]",> 20 µM,> 20 µM,> 20 µM,
"COc1cc2nc(C)nc(NC(C)c3ccc(-c4ccc(Cl)cc4CNC(=O)OC(C)(C)C)s3)c2cc1OC (centres unmarked) [Example 449, tert-butyl [5-chloro-2-(5-{1-[(6,7-dimethoxy-2-methylquinazolin-4-yl)amino]ethyl}thiophen-2-yl)benzyl]carbamate]",> 20 µM,> 20 µM,> 20 µM,
"COc1cc2nc(C)nc(NC(C)c3ccc(-c4cccc(Cl)c4CNC(=O)OC(C)(C)C)s3)c2cc1OC (centres unmarked) [Example 450, tert-butyl [2-chloro-6-(5-{1-[(6,7-dimethoxy-2-methylquinazolin-4-yl)amino]ethyl}-thiophen-2-yl)benzyl]carbamate]",> 20 µM,> 20 µM,> 20 µM,
"Cc1nc(N[C@H](C)c2cccc(Cl)c2)c2ccc(Br)cc2n1 [Example 451, 7-bromo-N-[(1R)-1-(3-chlorophenyl)ethyl]-2-methylquinazolin-4-amine]",> 20 µM,> 20 µM,> 20 µM,
"Cc1nc(NC(C)c2ccc(Br)s2)c2cc([N+](=O)[O-])ccc2n1 (centres unmarked) [Example 452, N-[1-(5-bromothiophen-2-yl)ethyl]-2-methyl-6-nitroquinazolin-4-amine]",> 20 µM,> 20 µM,> 20 µM,
"COC(=O)c1ccc2c(N[C@H](C)c3cccc(Cl)c3)nc(C)nc2c1 [Example 453, methyl 4-{[(1R)-1-(3-chlorophenyl)ethyl]amino}-2-methylquinazoline-7-carboxylate]",> 20 µM,> 20 µM,> 20 µM,
"COc1cc2ncnc(N[C@H](C)c3cccc4ccccc34)c2cc1OC [Reference compound, 6,7-dimethoxy-N-[(1R)-1-(1-naphthyl)ethyl]quinazolin-4-amine, reference compound]",,,,"IC50 ([1]; unit inferred, read-out: EGFR kinase inhibition IC50): 0.553 µM"
